{
  "source": "patent US20150125915A1",
  "about": "“Method for Producing Lactic Acid” (Kao Corporation, priority 2012, published 2015)",
  "key": {"[1]": {"system": "Rhizopus oryzae NBRC 4785", "assay": "Evaluation of ability to produce lactic acid-2, strain NBRC 4785", "type": "cell-based", "settings": "0.5% (w/v) at spore germination, control of the strain without surfactant = 100", "description": "(§1) (1) Spore suspensions were prepared in the same way as in Production Example 1 using Rhizopus oryzae NBRC 4707, NBRC 4785, NBRC 5384 (=JCM14625), and NBRC 5418 strains obtained from a culture collection NBRC.\n(§2) (2) Mycelia were prepared from the spores of each strain under the same conditions as in Production Example 2 involving stirring at 100 rpm using 60 mL of a PDB medium non-supplemented or supplemented with 0.5% (w/v) (final concentration) of the surfactant sorbitan monolaurate (Rheodol(R) SP-L10, manufactured by Kao Corp.).\n(§3) (3) The total amount of the fungus bodies obtained in (2) was inoculated to 100 mL of an inorganic culture medium under the same conditions as in Production Example 3 to grow the mycelia. […]\n(§4) 30 g of the prepared wet fungus bodies of each strain of the genus Rhizopus was inoculated to 100 mL of an inorganic culture medium for lactic acid production evaluation (composition: 12.5% glucose, 0.1% ammonium sulfate, 0.06% potassium dihydrogen phosphate, 0.025% magnesium sulfate heptahydrate, 0.009% zinc sulfate heptahydrate, and 6.25% calcium carbonate; all the concentrations mean % (w/v)) applied to a 500-mL Erlenmeyer flask, and then cultured at 33.5° C. with stirring at 170 rpm. The production rate of lactic acid was determined by the same procedures as in Test Example 2. […]"}, "[2]": {"system": "Rhizopus oryzae NBRC 4707", "assay": "Evaluation of ability to produce lactic acid-2, strain NBRC 4707", "type": "cell-based", "settings": "0.5% (w/v) at spore germination, control of the strain without surfactant = 100", "description": "as §1, §2, §3, §4"}},
  "data": [
    {"substance": "Sorbitan monolaurate", "values": [
      {"measurement": "Production rate of lactic acid (relative value)", "setting": "[1]", "value": 170, "unit": "relative value"},
      {"measurement": "Production rate of lactic acid (relative value)", "setting": "[2]", "value": 135, "unit": "relative value"}
    ]}
  ]
}
